Results taken from patent US8183247B2, “Boron compounds useful in BNCT” (Hammercap AB, priority 2005, dated 2012).

Key:
[1] = tested on: human glioma cell line U343mga; test: Cell uptake of boronated compounds (boron content by DCP-AES); assay type: cell-based; conditions: U343mga cells, 6 hours incubation, 5×10^−4 M boron; for Boron content expressed as a function of total cell protein, Trial 1: trial 1: 7.2 μg boron/ml culture medium; for Boron content expressed as a function of total cell protein, Trial 2: trial 2: 7.7 μg boron/ml culture medium
Protocol: (§1) Four different tumour cell lines of human origin, including human glioma cell line U343mga, human hepatocarcinoma cell line Hep3B, human breast adenocarcinoma cell line MCF7 and human sarcoma cell line 4SS, were used for in vitro testing of the purified material from Example 3 (hereinafter designated as BF). Cells were plated on non-coated tissue culture plastics and cultured at 37° C. in incubators with humidified air, equilibrated with 5% CO2. They were grown in recommended tissue culture medium, supplemented with 10% FCS and PEST (penicillin 100 IU/ml and streptomycin […]). For passage of cells, cells were trypsinized with trypsin-EDTA (0.25% trypsin, 0.02% EDTA in phosphate buffered saline (PBS) without calcium and magnesium).
U343 mga cells were plated on Petri dishes at 75% cell density and incubated with one of boric acid (BA), vitamin B12 conjugated boron (BB), 1-4-dihydroxyboryl-phenylalanine (BPA) or BF dissolved in tissue culture medium for 6 hours. All four boronated compounds were added to and dissolved in the tissue culture medium at equimolar concentrations with respect to the boron content (5×10^−4 M boron). Incubations were stopped by removing the boron-containing tissue culture medium and by adding cold PBS buffer for washing excess of medium from cells. Cells were immediately harvested by scraping them off the plastic dish using a rubber policeman. They were collected in cold PBS and pelleted by centrifugation.
(§2) Cell samples were taken for total protein analysis according to a standard Bradford procedure. Cell pellets were processed for boron analysis by Direct Current Plasma-Atomic Emission Spectroscopy (DCP-AES). Samples (50-130 mg) were digested at 60° C. with sulfuric acid/nitric acid (1/1). Triton X-100 and water added to give a concentrations of 50 mg tissue/ml, 15% total acid v/v and 5% Triton X-100 v/v. The boron concentrations were based on a known reference sample.

[2] = tested on: U343mga cells; test: Intracellular retention of boron after withdrawal of boron containing medium; assay type: cell-based, human; conditions: for Boron content in U343mga cells, 0 hour after withdrawal of boron containing medium / Boron content in U343mga cells, 2 hours after withdrawal of boron containing medium / Boron content in U343mga cells, 7 hours after withdrawal of boron containing medium: 18 hours incubation, 5×10^−4 M boron
Protocol: as §1, §2
U343 mga cells, were plated on Petri dishes at 75% cell density and incubated with one of 1-4-dihydroxyboryl-phenylalanine (BPA) or BF in tissue culture medium for 18 hours. Both boronated compounds were added to the tissue culture medium at equimolar concentrations with respect to the boron content (5×10^−4 M boron). Incubations were stopped by replacing the boron-containing medium with culture medium without boron. Cell samples were harvested at time points 0, 2 and 7 hours where the 0 time point represents immediate after 18 hour incubation of boronated compound.
Cells were washed with cold PBS and harvested by scraping them off the plastic dish using a rubber policeman, collected in cold PBS and pelleted by centrifugation. Cell pellets were analysed for total protein and boron content as described.

[3] = tested on: tumour cell lines of human origin; test: In vitro studies in tumour cell lines: signs of toxicity; assay type: cell-based; conditions: Examples 4-6
Protocol: as §1

[4] = tested on: human hepatocarcinoma cell line Hep3B; test: BF uptake by different tumor cells: Hep3B; assay type: cell-based; conditions: 6 hours incubation
Protocol: as §1
(§3) Cell samples were taken for total protein analysis according to a standard Bradford procedure. Cell pellets were processed for boron analysis by Direct Current Plasma-Atomic Emission Spectroscopy (DCP-AES). Samples (50-130 mg) were digested at 60° C. with sulfuric acid/nitric acid (1/1). Triton X-100 and water added to give a concentrations of 50 mg tissue/ml, 15% total acid v/v and 5% Triton X-100 v/v. The boron concentrations were based on a known reference sample. […]

[5] = tested on: human breast adenocarcinoma cell line MCF7; test: BF uptake by different tumor cells: MCF7; assay type: cell-based; conditions: 6 hours incubation
Protocol: as §1, §3

[6] = tested on: U343mga; test: BF uptake by different tumor cells: U343mga; assay type: cell-based, human; conditions: 6 hours incubation
Protocol: as §1, §3

[7] = tested on: human sarcoma cell line 4SS; test: BF uptake by different tumor cells: 4SS; assay type: cell-based; conditions: 6 hours incubation
Protocol: as §1, §3

Compound	Boron content expressed as a function of total cell protein, Trial 1 [1] [μg boron/g cell protein]	Boron content in U343mga cells, 0 hour after withdrawal of boron containing medium [2] [μg boron/g cell pellet]	Boron content in U343mga cells, 2 hours after withdrawal of boron containing medium [2] [μg boron/g cell pellet]	Boron content in U343mga cells, 7 hours after withdrawal of boron containing medium [2] [μg boron/g cell pellet]	Boron content expressed as a function of total cell protein, Trial 2 [1] [μg boron/g cell protein]	Signs of toxicity in in vitro studies [3]	Share of the total uptake retained in tumour cells ([2]; 7 hours after total depletion of BF in the culture medium) [%]	Boron content expressed as a function of total cell protein, Low cell density ([4]; 40-50% (low) cell density) [μg boron/g cell protein]	Boron content expressed as a function of total cell protein, High cell density ([4]; 90-100% (high) cell density) [μg boron/g cell protein]	Boron content expressed as a function of total cell protein, Low cell density ([5]; MCF7, 40-50% (low) cell density) [μg boron/g cell protein]	Boron content expressed as a function of total cell protein, High cell density ([5]; MCF7, 90-100% (high) cell density) [μg boron/g cell protein]	Boron content expressed as a function of total cell protein, Low cell density ([6]; 40-50% (low) cell density) [μg boron/g cell protein]	Boron content expressed as a function of total cell protein, High cell density ([6]; 90-100% (high) cell density) [μg boron/g cell protein]	Boron content expressed as a function of total cell protein, Low cell density ([7]; 40-50% (low) cell density) [μg boron/g cell protein]	Boron content expressed as a function of total cell protein, High cell density ([7]; 90-100% (high) cell density) [μg boron/g cell protein]
OB(O)O [BA, boric acid]	8	–	–	–	–	–	–	–	–	–	–	–	–	–	–
N[C@@H](Cc1ccc(B(O)O)cc1)C(=O)O [BPA, 1-4-dihydroxyboryl-phenylalanine, reference compound]	65	0.075	0	0	38	–	–	–	–	–	–	–	–	–	–
N^2-(4-{[(2-amino-4-oxo-3,4-dihydropteridin-6-yl)methyl]amino}benzoyl)-N-{3-[(1R,9S)-2,3,4,5,6,7,8,10,11,12-decaborabicyclo[7.2.1]dodec-1-yl]propyl}-α-glutamine and N^2-(4-{[(2-amino-4-oxo-3,4-dihydropteridin-6-yl)methyl]amino}benzoyl)-N-[3-(2,3,4,5,6,7,8,10,11,12-decaborabicyclo[7.2.1]dodec-1-yl)propyl]-L-glutamine [BF]	560	0.79	0.59	0.3	440	without any signs of toxicity	40	171	219	108	169	108	172	263	367
